# Data as given in patent publication US20090036449A1, “Indazolesquaric Acid Derivatives as Chk1, Chk2 and Sgk Inhibitors” (priority 2005, published 2009).
# Molecular target: T1, SGK1 protein kinase (Homo sapiens, UniProt O00141)
# T1 sequence (O00141 1-431): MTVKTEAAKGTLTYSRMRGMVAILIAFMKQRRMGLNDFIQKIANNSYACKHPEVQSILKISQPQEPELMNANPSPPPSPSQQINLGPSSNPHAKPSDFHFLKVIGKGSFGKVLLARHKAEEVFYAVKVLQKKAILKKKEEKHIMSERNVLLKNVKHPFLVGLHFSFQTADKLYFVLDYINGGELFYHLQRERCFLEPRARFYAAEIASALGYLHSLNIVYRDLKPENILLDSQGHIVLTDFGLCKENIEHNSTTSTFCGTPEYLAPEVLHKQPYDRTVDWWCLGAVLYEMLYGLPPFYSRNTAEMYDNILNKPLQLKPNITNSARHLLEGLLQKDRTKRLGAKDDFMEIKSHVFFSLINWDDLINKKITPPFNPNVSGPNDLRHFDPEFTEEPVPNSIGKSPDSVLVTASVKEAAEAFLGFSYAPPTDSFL
# Assay: SGK inhibition (filter binding method, analogously to CHK1, CHK2)
# Assay type: biochemical
# Procedure: (§1) 5-20 mU of CHK1 kinase (diluted in 20 mM MOPS pH7.5, 1 mM EDTA, 0.1% β-mercaptoethanol, 0.01% Brij-35, 5% glycerol, 1 mg/ml of BSA) are incubated for 30 min at room temperature in the presence of 30-200 μM CHKtide in 25.5 μl in 1-fold reaction buffer (8 mM MOPS pH7, 0.2 mM EDTA, 10 mM magnesium acetate, 0.02 mM ^33P-ATP [500-1000 cpm/pmol]). The reaction is stopped using 5 μl of 0.5 M ortho-phosphoric acid and filtered through P81 filter plates. After the filter plates have been washed a number of times, the bound radioactivity is determined in a scintillation counter.
# as §1, with “CHK2” for “CHK1”, “CHKtide ([…])” for “CHKtide”
# The inhibition of SGK1 protein kinase can be determined in the filter binding method (analogously to CHK1, CHK2).
smiles,measurement,value
"O=C(Nc1n[nH]c2ccc(Nc3c(NCc4cccc(O)c4)c(=O)c3=O)cc12)c1ccccc1 [Compound 40, 3-(3-benzoylamino-1H-indazol-5-ylamino)-4-(3-hydroxybenzylamino)cyclobut-3-ene-1,2-dione]",IC50,10 nM
"COc1cccc(CNc2c(Nc3ccc4[nH]nc(NC(=O)c5ccccc5)c4c3)c(=O)c2=O)c1 [Compound 41, 3-(3-benzoylamino-1H-indazol-5-ylamino)-4-(3-methoxybenzylamino)cyclobut-3-ene-1,2-dione]",IC50,61.5 nM
"COc1cccc([C@@H](C)Nc2c(Nc3ccc4[nH]nc(NC(=O)c5ccccc5)c4c3)c(=O)c2=O)c1 [Compound 42, 3-(3-benzoylamino-1H-indazol-5-ylamino)-4-[(R)-1-(3-methoxyphenyl)ethylamino]cyclobut-3-ene-1,2-dione]",IC50,10 nM
